In article PMC8344021, “Discovery of Small Molecule Bak Activator for Lung Cancer Therapy” (Theranostics, 2021):

What was measured:
A549-IRR xenografts = experiment: Radioresistant A549-IRR xenografts, tumor growth; assay type: in vivo, Nu/Nu nude mice; settings: 15 mg/kg/d, 4 weeks
Experimental: Six-week-old female Nu/Nu nude mice were purchased from Envigo (Indianapolis, IN) and housed under pathogen-free conditions in microisolator cages. The animal propagation protocol was approved by the Emory Institutional Animal Care and Use Committee (IACUC) and the Emory Animal Ethics Committee. 3×10^6 lung cancer cells were injected into subcutaneous tissue in the flank region of nude mice. The tumors were allowed to grow to an average volume of 150~200 mm^3 prior to initiation of therapy as previously described, [29]. Patient-derived xenografts (PDXs, TKO-002 and TKO-005) were established as part of an IRB-approved phase II co-clinical trial of arsenic trioxide in patients with relapsed SCLC who had failed standard platinum-based chemotherapy. Tumor samples were obtained by image-guided biopsy and were directly implanted into Nu/Nu nude mice without intervening propagation in plastic culture plates. Direct serial propagation of growing tumor occurred for up to 5 generations. […] During treatment, tumor volume (V) was measured by caliper measurements once every two days as described previously. […]
Figure S7. […] (A) Expression levels of Bak in A549-P versus A549-IRR cells, H358-P versus H358 -IRR cells or H460-P versus H460-IRR cells were analyzed by Western blot. […]
(§1) Tumor volume was measured once every 2 days. After treatment, mice were sacrificed and tumors were removed and analyzed. […]

A549 xenografts = experiment: A549 lung cancer xenografts, tumor growth; assay type: in vivo, Nu/Nu nude mice
Experimental: (§2) Six-week-old female Nu/Nu nude mice were purchased from Envigo (Indianapolis, IN) and housed under pathogen-free conditions in microisolator cages. The animal propagation protocol was approved by the Emory Institutional Animal Care and Use Committee (IACUC) and the Emory Animal Ethics Committee. 3×10^6 lung cancer cells were injected into subcutaneous tissue in the flank region of nude mice. The tumors were allowed to grow to an average volume of 150~200 mm^3 prior to initiation of therapy as previously described, [29]. Patient-derived xenografts (PDXs, TKO-002 and TKO-005) were established as part of an IRB-approved phase II co-clinical trial of arsenic trioxide in patients with relapsed SCLC who had failed standard platinum-based chemotherapy. Tumor samples were obtained by image-guided biopsy and were directly implanted into Nu/Nu nude mice without intervening propagation in plastic culture plates. Direct serial propagation of growing tumor occurred for up to 5 generations. The animal propagation protocol was approved by the Emory IACUC and the Emory Animal Ethics Committee. Mice with SCLC and NSCLC xenografts or PDXs were treated with BKA-073 intraperitoneally (i.p.) or venetoclax orally as indicated. During treatment, tumor volume (V) was measured by caliper measurements once every two days as described previously. Mice were euthanized by CO2 inhalation at the end of treatment. Harvested tumor tissues were used for further analysis.
To assess whether BKA-073 induced suppression of tumor growth occurs through activation of Bak and apoptosis in vivo, representative samples from harvested tumor tissues were analyzed by cross-linking with BMH for Bak oligomerization or by immunohistochemistry (IHC) for active caspase 3 as described, [29], [47]. […] There were no decreases in white cells (WBC), red blood cells (RBC) and platelets (PLT) in blood.

Bak-/- A549 xenografts = experiment: Bak-/- A549 xenografts, tumor growth; assay type: in vivo, Nu/Nu nude mice; settings: 12.5mg/kg/d i.p., 28 days
Experimental: as §2, with “Harvested tumor tissues were used for further analysis.” left out

[1] = system: A549-P, A549-IRR, H358-P, H358-IRR, H460-P and H460-IRR cells; experiment: Colony formation assay in parental and radioresistant cells; assay type: cell-based, human; settings: 0.5 µM
Experimental: To further investigate whether Bak contributes to radioresistance, we established three lung cancer cell lines with ionizing radiation resistance (i.e. A549-IRR, H358-IRR and H460-IRR) as described, [52], [53]. […] A549-P, […] and H460-P cells remained sensitive to IR, but A549-IRR, H358-IRR and H460-IRR became insensitive to IR. […] To further test this in vivo, NSCLC xenografts derived from A549-P and A549-IRR cell lines were treated with IR (2Gy/exposure, every other day for total of 5 times) or BKA-073 (15 mg/kg/d) for 4 weeks. We observed that lung cancer xenografts derived from A549-IRR cells were resistant to IR treatment whereas xenografts derived from A549-P were sensitive to IR treatment (Figure S7C).
Figure S7. BKA-073 overcomes radioresistance of lung cancer in vitro and in vivo. (A) Expression levels of Bak in A549-P versus A549-IRR cells, H358-P versus H358 -IRR cells or H460-P versus H460-IRR cells were analyzed by Western blot. (B) A549-P, A549-IRR, H358-P, H358-IRR, H460-P and H460-IRR cells were treated with IR (5Gy), BKA -073 (0.5 µM), followed by colony formation assay. Data represent the mean ± SD, n = 3 per group. ***P < 0.001, ns: not significant, by 2-tailed t test. […]
as §1

COc1ccc2nc3ccccc3c(NCCNCC(C)O)c2c1 (stereo not drawn) [BKA-073]
tumor growth (A549-IRR xenografts): repressed xenografts
apoptosis (active caspase 3, IHC) in tumor tissues (A549 xenografts; 5, 10, 15mg/kg/d i.p., 28 days): Dose-dependent
tumor growth (A549 xenografts; 5, 10, 15mg/kg/d i.p., 28 days): potently suppressed lung cancer growth in a dose-dependent fashion
Bak oligomerization in tumor tissues (A549 xenografts; 5, 10, 15mg/kg/d i.p., 28 days, BMH cross-linking): Dose-dependent
tumor growth (A549 xenografts; A549-P xenografts, 15 mg/kg/d, 4 weeks): repressed xenografts
tumor growth (A549 xenografts; parental A549 xenografts, 12.5mg/kg/d i.p., 28 days): potently inhibited growth
tumor growth (Bak-/- A549 xenografts): no inhibitory effect
sensitivity (colony formation) ([1]; parental cell lines (A549-P, H358-P, H460-P)): sensitive
sensitivity (colony formation) ([1]; radioresistant cell lines (A549-IRR, H358-IRR, H460-IRR)): sensitive
